System: C57BL/6 mice, diffuse TBI
Test: Flow cytometry analysis of blood after TBI
Type: in vivo, mouse
Conditions: 10 mg/kg i.p. 30 min prior to TBI
Protocol: 30 min prior to TBI or sham injury, mice were randomly assigned to a therapeutic group and received an intraperitoneal injection of 2LS80Mel (10 mg/kg) or sterile saline (0.25 ml). Groups were as follows: TBI-2LS80Mel n = 17; TBI-vehicle n = 17; sham n = 22 (vehicle n = 11, 2LS80Mel n = 11).
For injury induction 24 h post-surgery, mice were re-anesthetized with 5% isoflurane delivered for 3 min. The cap was removed from the injury-hub assembly and the dura was visually inspected through the hub to ensure it was intact with no debris. The hub was then filled with normal saline and attached to an extension tube connected to the male end of the fluid percussion device (Custom Design and Fabrication, Virginia Commonwealth University, Richmond, VA). An injury of moderate severity for our injury model (1.4 atm) was administered by releasing the pendulum onto the fluid-filled cylinder following the return of a toe-pinch response. Sham mice underwent the same procedure except the pendulum was not released. Injured mice were monitored for presence of a forearm fencing response and righting reflex times were recorded as indicators of injury severity ([Hosseini and Lifshitz, 2009]). The righting reflex time is the total time from the initial impact until the mouse spontaneously rights itself from a supine position. The fencing response is a tonic posturing characterized by extension and flexion of opposite arms that has been validated as an overt indicator of injury severity ([Hosseini and Lifshitz, 2009]). The injury hub was removed, and the brain was inspected for uniform herniation and integrity of the dura. The incision was cleaned with saline and closed using sutures. Moderately brain-injured mice had righting reflex recovery times greater than 4 min and a positive fencing response. […] After spontaneously righting, mice were placed in a heated recovery cage and monitored until they were ambulatory (approximately 5–15 min) before being returned to their piezoelectric sleep cage (see below). […]

For `CC[C@H](C)[C@H](NC(=O)CNC(=O)[C@H](CC(=O)O)NC(=O)[C@H](CO)NC(=O)[C@@H](N)Cc1c[nH]cn1)C(=O)N[C@@H](Cc1ccccc1)C(=O)N[C@H](C(=O)N[C@@H](CC(=O)O)C(=O)N[C@@H](CO)C(=O)N[C@@H](Cc1ccc(O)cc1)C(=O)N[C@@H](CO)C(=O)N[C@@H](CCCNC(=N)N)C(=O)N[C@@H](Cc1ccc(O)cc1)C(=O)N[C@@H](CCCNC(=N)N)C(=O)N[C@@H](CCCCN)C(=O)N[C@@H](CCC(N)=O)C(=O)N[C@@H](CC(C)C)C(=O)N[C@@H](C)C(=O)N[C@H](C(=O)N[C@@H](CCCCN)C(=O)N[C@@H](CCCCN)C(=O)N[C@@H](Cc1ccc(O)cc1)C(=O)N[C@@H](CC(C)C)C(=O)N[C@@H](C)C(=O)N[C@@H](C)C(=O)N[C@H](C(=O)N[C@@H](CC(C)C)C(=O)N[C@@H](CO[C@@H]1O[C@H](CO[C@H]2O[C@H](CO)[C@H](O)[C@H](O)[C@H]2O)[C@@H](O)[C@H](O)[C@H]1O)C(N)=O)C(C)C)C(C)C)[C@@H](C)O` [Compound 2LS80Mel], the “CD11b+CD115+Ly6Chigh monocyte population in blood” value was “increase was not seen”, the “CD11b+Ly6Chigh monocyte population in blood” value was “increase was not seen” and the “Neutrophil populations in blood” value was “no differences”.
